“Also recorded” adds a separate entry of the source.
Key:
[1] = test system: P3 SCL; assay: In vivo play-off phage auditioning, P3 SCL tumor; design: species or system P3 stem cell-like glioblastoma in athymic nude mice; settings: phage-displayed peptide; equimolar mix, i.v. 1 × 10^10 pfu/mouse, 2 h circulation, perfusion; Ion-Torrent sequencing; mean, N = 3 mice
Procedure: (§1) Athymic nude mice (Hsd/Athymic Fox1 nu Harlan) were purchased from Envigo (Netherlands) and maintained under standard housing conditions of the Animal Facility of the Institute of Biomedicine and Translational Medicine, University of Tartu (Tartu, Estonia). For orthotropic GBM tumor models, we used NCH421K, P13, and P3 stem cell-like, WT-GBM cells. The individual GBM cells around 2–3 × 10^5 in 3 μL PBS were intracranially implanted into mice brain 2 mm right and 1 mm anterior to the bregma. U87-MG and PC3 subcutaneous models were induced by injecting 2–9 × 10^6 cells in 100 µl PBS subcutaneously into the right flank of 11–15 week old male and female nude mice. All animal experiments were performed in accordance with the procedures approved by the Committee of Animal Experimentation of Estonian Ministry of Agriculture, permits #42 and #48.
(§2) In vivo play-off was used for internally controlled and competitive systemic phage homing studies in mice bearing tumor xenografts. Phages displaying the candidate TNC-C binding peptides and control peptides were individually amplified and purified by precipitation with PEG-8000 (Sigma-Aldrich, St. Louis, MO, USA), followed by […] gradient ultracentrifugation and dialysis. The phages were pooled at equimolar representation (Table 1 for details) and injected iv at 1 × 10^10 pfu (in 200 µl PBS) in tumor-bearing mice, circulated for 2 h, followed by anesthesia and intracardial perfusion with DMEM. The tumors and organs were collected in lysogeny broth (LB) medium containing 1% NP40, and the tissues were homogenized using a hand-held homogenizer. Phages in the tissue lysate were amplified in E.coli, purified by precipitation with PEG-8000, and DNA was extracted using a DNA extraction kit (High Pure PCR Template Preparation Kit; Roche, Basel, Switzerland). Next-generation sequencing of phage genomic DNA with Ion Torrent system (Thermo Fisher Scientific, Waltham, MA, USA) was used to evaluate the representation of each peptide-phage in the input mixture, in tumors and control organs. The FASTQ data from Ion Torrent were processed using a custom python script that identified the barcodes, constant flanking residues, and extracted the reads of the correct length.

[2] = test system: Norm. brain; assay: In vivo play-off phage auditioning, normal brain; design: species or system athymic nude mice; settings: phage-displayed peptide; equimolar mix, i.v. 1 × 10^10 pfu/mouse, 2 h circulation, perfusion; Ion-Torrent sequencing; mean, N = 3 mice
Procedure: as §2

[3] = test system: WT-GBM; assay: In vivo play-off phage auditioning, WT-GBM tumor; design: species or system murine WT-GBM glioblastoma in athymic nude mice; settings: phage-displayed peptide; equimolar mix, i.v. 1 × 10^10 pfu/mouse, 2 h circulation, perfusion; Ion-Torrent sequencing; mean, N = 3 mice
Procedure: as §1, §2

[4] = test system: recombinant TNC-C; assay: Cell-free phage binding to TNC-C; design: species or system human; settings: T7 phage-displayed peptide; alanine scan expressed as percent binding of parental PL3 phage; 3 independent experiments
Procedure: For biopanning on recombinant human TNC-C, we used NNK-encoded CX7C and X7 peptide T7 phage libraries with diversity ~5 × 10^8. Throughout our screens, the selected phages were amplified following plate amplification protocol. The 1st and 4th rounds of biopanning were performed on TNC-C immobilized on Costar 96-Well ELISA plate (#3590, Corning Life Sciences, Tewksbury, MA, USA). Briefly, the multiwell plates were coated with 20 µg/ml recombinant TNC-C in 100 µl of PBS overnight at 4 °C, followed by blocking with 1% bovine serum albumin (BSA) in PBS overnight at 4 °C. The phage library (5 × 10^8 pfu in 100 µl of PBS-BSA) was incubated overnight at 4 °C, followed by 6 washes with PBS containing 1% BSA and 0.1% Tween-20 (washing buffer) to remove background phages, and by phage rescue and amplification in E. coli strain BLT5403 (Novagen, EMD Biosciences, MA, USA)[8]. The subsequent rounds of selection were performed on Ni-NTA Magnetic Agarose Beads (QIAGEN, Hilden, Germany) coated with His-6X tagged TNC-C (30 µg/10 µl beads) at room temperature for 1 h in 400 µl of PBS. The TNC-C beads were washed 3 times with washing buffer, followed by incubation with phages in (5 × 10^8 pfu in 100 µl in washing buffer) at room temperature for 1 h. The background phages were removed by rinsing 6 times with washing buffer, and the bound phages were eluted with 1 ml of PBS containing 500 mM Imidazole and 0.1% NP40.
(§3) The eluted phages were titered and amplified for a next round of selection. After 5 rounds of selection, peptide-encoding DNA from a set of 48 phage clones was subjected to Sanger sequencing of peptide-encoding phage DNA[18],[22]. For cell-free binding studies with individual phage clones were incubated with Ni-NTA magnetic beads coated with hexahistidine-tagged TNC-C as above. RPARPAR phage binding to NRP-1-coated beads was used as a positive control. Phage clones displaying heptaglycine peptide (GGGGGGG, G7), or insertless phage clones were used as negative controls. […]
Fig. S13. NRP -1-dependent internalization of PL3 -functionalized AgNPs […]
Supplementary Materials and Methods
Cloning, expression , and purification of TNC-C
Vector Construction. A pF1K (Promega, # FXC00319) derivative plasmid containing full -length cDNA of TNC was used for PCR amplification of cDNA region of TNC-C with Phusion Hot Start II High -Fidelity DNA Polymerase (Thermo Fisher Scientific Inc # F -537L; primer pairs:
5′- CTCCTCT […] -3′ and 5′ -
CAGACA CTCGAG TTATCA TGTAACAATCTC -3′ for domain TNC -C. NdeI and XhoI restriction sites underlined ). The fragments were cloned in the pET28a+ plasmid for TNC -C expression as a n N-terminally His -tagged protein .
Expression and purification of TNC-C. The pET28a+ TNC-C plasmid was used for transformation of E. coli BL21 Rosetta 2 (DE3) pLysS cells (Novagen, #70956). The protein expression was induced by addition of isopropyl β-D-1-thiogalactopyranoside (IPTG) (Sigma, # I6758) to 0.5 mM final concentration and the bacteria were culture d at 18 °C for 16h . Cells were […]
collected by centrifugation, resuspended in ice-cold IMAC buffer (25mM Tris-HCl, 400mM NaCl, 25mM imidazole pH 8, containing EDTA-free protease inhibitor cocktail and DNase I) and lysed by sonification (Bandelin Sonopuls HD 2070, Germany). The cleared bacterial lysate was purified using HiTrap IMAC HP column s (GE Healthcare # 17 -0920-05) on ÄKTA purification system (GE Healthcare ), and the eluate was dialyzed against PBS using 3.5 kDa cut - off 3mL Slide-A-Lyzer Dialysis Cassettes (Thermo Scientific #66330). TNC-C concentration was determined by bicinchoninic acid assay (Thermo Scientific #23227) , and the purity of the proteins was assessed by SDS -PAGE. Mass spectrometry and de novo peptide sequencing were used to confirm the size and sequence of the purified proteins . His-tagged NRP-1 b1b2 domain was expressed and purified as described (Teesalu et al., 2009) .
Single-chain antibodies: The cDNA sequences encoding TNC-C-G11-scFV were retrieved from […]

[5] = test system: U87-MG; assay: In vivo play-off phage auditioning, U87-MG tumor; design: species or system human glioblastoma in athymic nude mice; settings: phage-displayed peptide; equimolar mix, i.v. 1 × 10^10 pfu/mouse, 2 h circulation, perfusion; Ion-Torrent sequencing; mean, N = 3 mice
Procedure: as §1, §2

[6] = test system: recombinant b1b2 domain of NRP-1; assay: Cell-free phage binding to NRP-1; settings: T7 phage-displayed peptide
Procedure: as §3
collected by centrifugation, resuspended in ice-cold IMAC buffer (25mM Tris-HCl, 400mM NaCl, 25mM imidazole pH 8, containing EDTA-free protease inhibitor cocktail and DNase I) and lysed by sonification (Bandelin Sonopuls HD 2070, Germany). […] TNC-C concentration was determined by bicinchoninic acid assay (Thermo Scientific #23227) , and the purity of the proteins was assessed by SDS -PAGE. […]
Single-chain antibodies: The cDNA sequences encoding TNC-C-G11-scFV were retrieved from US patent application EP2157102 A1, and synthetic DNA fragments were cloned in the pET28a+ expression plasmid. […] The purified antibodies were analyzed by SDS-PAGE. […]

[7] = test system: P13; assay: In vivo play-off phage auditioning, P13 tumor; design: species or system P13 glioblastoma in athymic nude mice; settings: phage-displayed peptide; equimolar mix, i.v. 1 × 10^10 pfu/mouse, 2 h circulation, perfusion; Ion-Torrent sequencing; mean, N = 3 mice
Procedure: as §1, §2

[8] = test system: PC3; assay: In vivo play-off phage auditioning, PC3 tumor; design: species or system prostate carcinoma in athymic nude mice; settings: phage-displayed peptide; equimolar mix, i.v. 1 × 10^10 pfu/mouse, 2 h circulation, perfusion; Ion-Torrent sequencing; mean, N = 3 mice
Procedure: as §1, §2

[9] = test system: fibronectin EDB-domain; assay: Cell-free phage binding to fibronectin EDB; settings: T7 phage-displayed PL3; in words
[10] = test system: tumor tissue across models (4 glioma models and 1 prostate cancer model); assay: In vivo play-off phage auditioning, across tumor models; design: species or system nude mice; settings: T7 phage play-off, i.v., 2 h
Procedure: as §2

AGRGRLVR (left off: T7 phage particle (peptide displayed on it), end not stated, kept) [PL3]
Representation of phage in tumors, P3 SCL [1]: 2.1 fold G7 control phage | Representation of phage in control brain tissue (Norm. brain) [2]: 0.4 fold G7 control phage | Representation of phage in tumors, WT-GBM [3]: 24.1 fold G7 control phage | phage binding to recombinant TNC-C (in words) [4]: binds; also recorded: robust interaction with TNC-C | Representation of phage in tumors, U87-MG [5]: 2.1 fold G7 control phage | phage binding to NRP-1 (in words) ([6]; NRP-1 b1b2-coated beads): binds | PL3 phage binding to b1b2 domain of NRP-1 vs heptaglycine control phage ([6]; fold over G7 control phage): ~ 200 fold | Representation of phage in tumors, P13 [7]: 4.7 fold G7 control phage | Representation of phage in tumors, PC3 [8]: 3.9 fold G7 control phage | phage binding to fibronectin EDB-domain [9]: did not bind; also recorded: no binding | representation in tumor tissue across models [10]: overrepresented in tumor tissue across models tested
